Reference: PMC4376459, “CXCR3 antagonist VUF10085 binds to an intrahelical site distinct from that of the broad spectrum antagonist TAK-779” (British Journal of Pharmacology, 2015)
Changes are numbered by the printed parent chain.

Assays:
Experiment in all cases: Whole-cell 125I-CXCL11 binding assay, L1.2 transfectants
[1] = target: T1, CXCR3 F131A (Homo sapiens, UniProt P49682, F131A); conditions: 0.1 nM 125I-CXCL11, read-out: IC50 ligand binding (mean ± SEM)
T1 construct: expressed in transfected cells; host or cells: murine pre-B cell line L1.2, transient transfection
T1 sequence (P49682 1-368 F131A): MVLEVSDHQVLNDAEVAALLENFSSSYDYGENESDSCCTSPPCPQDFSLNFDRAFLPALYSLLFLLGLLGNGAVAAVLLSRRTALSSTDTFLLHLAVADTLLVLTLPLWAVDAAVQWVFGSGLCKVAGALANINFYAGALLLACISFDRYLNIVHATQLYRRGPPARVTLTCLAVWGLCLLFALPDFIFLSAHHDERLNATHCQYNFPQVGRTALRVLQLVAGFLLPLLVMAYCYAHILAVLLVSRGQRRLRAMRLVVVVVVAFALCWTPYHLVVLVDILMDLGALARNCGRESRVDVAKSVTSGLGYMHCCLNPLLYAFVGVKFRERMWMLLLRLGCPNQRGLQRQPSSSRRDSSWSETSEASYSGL

[2] = target: T2, D112N-CXCR3 (Homo sapiens, UniProt P49682, D112N); conditions: D112N-CXCR3 transfectants (Figure 1); read-out: IC50 for displacement of 125I-CXCL11
T2 construct: expressed in transfected cells; host or cells: murine pre-B cell line L1.2, transient transfection
T2 sequence (P49682 1-368 D112N): T1 sequence (P49682 1-368 F131A) with D112N, A131F

[3] = target: T3, CXCR3 H202A (ECL2) (Homo sapiens, UniProt P49682, H202A); conditions: 0.1 nM 125I-CXCL11, read-out: IC50 ligand binding (mean ± SEM)
T3 construct: expressed in transfected cells; host or cells: murine pre-B cell line L1.2, transient transfection
T3 sequence (P49682 1-368 H202A): T1 sequence (P49682 1-368 F131A) with A131F, H202A

[4] = target: T4, CXCR3 Y60A (Homo sapiens, UniProt P49682, Y60A)
T4 construct: expressed in transfected cells; host or cells: murine pre-B cell line L1.2, transient transfection
T4 sequence (P49682 1-368 Y60A): T1 sequence (P49682 1-368 F131A) with Y60A, A131F

[5] = target: T5, CXCR3 I279A (Homo sapiens, UniProt P49682, I279A); conditions: I279A, 0.1 nM 125I-CXCL11; read-out: IC50 ligand binding (mean ± SEM)
T5 construct: expressed in transfected cells; host or cells: murine pre-B cell line L1.2, transient transfection
T5 sequence (P49682 1-368 I279A): T1 sequence (P49682 1-368 F131A) with A131F, I279A

`Cc1ccc(-c2ccc3c(c2)C=C(C(=O)Nc2ccc(C[N+](C)(C)C4CCOCC4)cc2)CCC3)cc1.[Cl-]` [TAK-779, N,N-dimethyl-N-[4-[[[2-(4-methylphenyl)-6,7-dihydro-5H-benzocyclohepten-8-yl]-carbonyl]amino]benzyl] tetrahydro-2H-pyran-4-aminium chloride] gave an IC50 [1] of 23.3 ± 6.57 µM, an IC50 [2] of 17.2 µM and an IC50 [3] of 25.3 ± 10.2 µM. For the same molecule, the “reduction in IC50 value, ligand binding” value ([4]; Y60A relative to WT) was “twofold”, the IC50 ([4]; Y60A, 0.1 nM 125I-CXCL11, read-out: IC50 ligand binding (mean ± SEM)) was 14 ± 7.07 µM and the IC50 [5] was 39.4 ± 15 µM.
